Earlier results, collected in patent US20110268774A1, “PREPARATION OF STEM CELLS WITH REPROGRAMMED CELL SIGNALLING, A METHOD OF PRODUCING THE PREPARATION AND A METHOD OF USE THEREOF” (priority 2008, published 2011).

Molecular target: Protein produced by HER2/neu gene (Homo sapiens, UniProt P04626)
Conditions: breast cancer

Protein produced by HER2/neu gene, sequence (P04626 23-1255): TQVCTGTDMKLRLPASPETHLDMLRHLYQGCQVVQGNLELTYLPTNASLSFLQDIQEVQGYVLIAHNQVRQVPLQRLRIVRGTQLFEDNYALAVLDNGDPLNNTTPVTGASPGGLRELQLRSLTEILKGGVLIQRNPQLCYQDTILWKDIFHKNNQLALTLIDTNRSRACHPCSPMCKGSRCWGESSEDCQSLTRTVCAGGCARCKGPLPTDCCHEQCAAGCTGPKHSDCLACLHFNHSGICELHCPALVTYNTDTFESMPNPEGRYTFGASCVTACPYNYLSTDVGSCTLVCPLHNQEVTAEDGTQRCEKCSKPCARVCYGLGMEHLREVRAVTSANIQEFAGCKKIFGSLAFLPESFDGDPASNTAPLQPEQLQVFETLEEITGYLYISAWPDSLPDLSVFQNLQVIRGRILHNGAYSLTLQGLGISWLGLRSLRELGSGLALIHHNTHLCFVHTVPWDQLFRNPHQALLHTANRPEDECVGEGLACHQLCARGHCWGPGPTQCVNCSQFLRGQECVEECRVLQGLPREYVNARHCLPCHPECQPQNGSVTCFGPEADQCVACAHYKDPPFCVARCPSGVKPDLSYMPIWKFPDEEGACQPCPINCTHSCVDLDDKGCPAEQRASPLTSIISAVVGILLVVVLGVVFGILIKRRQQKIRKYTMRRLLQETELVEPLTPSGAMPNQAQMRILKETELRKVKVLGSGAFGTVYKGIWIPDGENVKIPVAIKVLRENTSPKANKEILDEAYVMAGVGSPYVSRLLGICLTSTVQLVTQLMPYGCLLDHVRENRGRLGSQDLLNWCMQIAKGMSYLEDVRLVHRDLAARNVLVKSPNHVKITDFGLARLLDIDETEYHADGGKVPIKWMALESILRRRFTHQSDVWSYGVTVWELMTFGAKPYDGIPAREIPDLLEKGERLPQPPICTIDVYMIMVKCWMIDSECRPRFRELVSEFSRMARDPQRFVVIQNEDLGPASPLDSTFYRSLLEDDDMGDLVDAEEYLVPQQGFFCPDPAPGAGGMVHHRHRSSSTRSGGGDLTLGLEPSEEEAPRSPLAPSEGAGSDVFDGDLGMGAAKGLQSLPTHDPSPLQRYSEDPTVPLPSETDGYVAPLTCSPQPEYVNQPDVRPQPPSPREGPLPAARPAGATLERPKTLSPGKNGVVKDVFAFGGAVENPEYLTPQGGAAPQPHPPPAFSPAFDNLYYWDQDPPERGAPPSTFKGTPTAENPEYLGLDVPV

recovery: 63%
CSC percentage in tumour (from 11%): 5%
SMILES: CS(=O)(=O)CCNCc1ccc(-c2ccc3ncnc(Nc4ccc(OCc5cccc(F)c5)c(Cl)c4)c3c2)o1 [Tykerb]
